According to patent US20260364168A1, “USE OF PROTEIN KINASE C (PKC) ACTIVATING COMPOUNDS AS AN ADJUVANT” (priority 2022, published 2026):
Where two headings read alike, the source gives them in different places.

System: human PBMC cells
Test: cytokine/chemokine gene expression (TaqMan) in human PBMC
Details: Homo sapiens, PBMC, 4 h
Experimental: Materials and methods: 100 million frozen human PBMC cells were purchased from Allcells (100 million/vial). The cells were thawed and recovered for one day before 1.5-1.8 million cells in 900 μl RPMI1640 with 10% heat-inactivated FBS were seeded in each well of 24-well plates. Various compounds in DMSO stock (500×) were diluted 50-fold with the same media to make 10× compound stock for most compounds. 1 μL of 5 mg/mL PMA was diluted to 99 μL of the media to make 50 μg/mL PMA. For PMA with ionomycin treatment condition, 1.5 μL of 50 μg/mL PMA and 3 μL of 500 μg/mL ionomycin were added to 145.5 μL of the media to make 10× compound stock. Sources of the compounds are as follows: PMA from Abcam (Abcam #ab120297); Ionomycin from Sigma (Sigma #I0634); Resiquimod from Sellect Chem. (Selleckchem #S8133); and LPS from Sigma (Sigma #L6143).
Each treatment condition was performed in duplicates. After treatment, mRNA was extracted from cells and samples from duplicates were combined for TaqMan gene expression assays (ThermoFisher) in triplicates. Expression of 19 genes (IL-1β, IL-2, IL-4, IL-6, IL-8, IL-10, IL-13, IL-18, IL-12p70/IL-12A, IL-12p40/IL-12B, IFN-α, IFN-γ, GM-CSF/CSF2, CCL2/MCP-1, MIP1a/CCL3, TNF-α, MX1, OAS1, ISG15) along with two housekeeping gene controls, 18S and GAPDH, was determined. Target gene expression in each sample was determined by relative quantification (RQ) using the comparative Ct (ΔΔCT) method. This method measures the Ct difference (ΔCT) between target gene and the housekeeping genes (18S & GAPDH), then compares the ΔCT values of treated samples to DMSO-treated control samples. The mean ΔCT value of the DMSO-treated control from two independent DMSO-treated control samples was used. The relative expression level of target gene was calculated by using the equation:
relative expression=2^−ΔΔCT

## CC1=C[C@H]2[C@@]3(O)[C@H](C)C[C@]4(OC(=O)[C@@H](N)[C@]56C[C@H]7C[C@H](C[C@H](C7)C5)C6)[C@H]([C@@H]3C=C(CO)C[C@]2(O)C1=O)C4(C)C
read-out: CCL2 gene relative expression, 0.01 μM, 4 h, vs DMSO
  fold induction at 0.01 µM: 5.58
read-out: CCL2 gene relative expression, 0.03 μM, 4 h, vs DMSO
  fold induction at 0.03 µM: 3.59
read-out: CCL2 gene relative expression, 0.10 μM, 4 h, vs DMSO
  fold induction at 0.1 µM: 0.38
read-out: GM-CSF gene relative expression, 0.01 μM, 4 h, vs DMSO
  fold induction at 0.01 µM: 1.59
read-out: GM-CSF gene relative expression, 0.03 μM, 4 h, vs DMSO
  fold induction at 0.03 µM: 8.38
read-out: GM-CSF gene relative expression, 0.10 μM, 4 h, vs DMSO
  fold induction at 0.1 µM: 16.1
read-out: IFN-α gene relative expression, 0.01 μM, 4 h, vs DMSO
  fold induction at 0.01 µM: 0.78
read-out: IFN-α gene relative expression, 0.03 μM, 4 h, vs DMSO
  fold induction at 0.03 µM: 0.46
read-out: IFN-α gene relative expression, 0.10 μM, 4 h, vs DMSO
  fold induction at 0.1 µM: 0.31
read-out: IFNγ gene relative expression, 0.01 μM, 4 h, vs DMSO
  fold induction at 0.01 µM: 1.69
read-out: IFNγ gene relative expression, 0.03 μM, 4 h, vs DMSO
  fold induction at 0.03 µM: 3.82
read-out: IFNγ gene relative expression, 0.10 μM, 4 h, vs DMSO
  fold induction at 0.1 µM: 18.1
read-out: IL-1β gene relative expression, 0.01 μM, 4 h, vs DMSO
  fold induction at 0.01 µM: 0.59
read-out: IL-1β gene relative expression, 0.03 μM, 4 h, vs DMSO
  fold induction at 0.03 µM: 2.26
read-out: IL-1β gene relative expression, 0.10 μM, 4 h, vs DMSO
  fold induction at 0.1 µM: 3
read-out: IL-2 gene relative expression, 0.01 μM, 4 h, vs DMSO
  fold induction at 0.01 µM: 3.06
read-out: IL-2 gene relative expression, 0.03 μM, 4 h, vs DMSO
  fold induction at 0.03 µM: 7.78
read-out: IL-2 gene relative expression, 0.10 μM, 4 h, vs DMSO
  fold induction at 0.1 µM: 3.29
read-out: IL-4 gene relative expression, 0.01 μM, 4 h, vs DMSO
  fold induction at 0.01 µM: 0.84
read-out: IL-4 gene relative expression, 0.03 μM, 4 h, vs DMSO
  fold induction at 0.03 µM: 2.54
read-out: IL-4 gene relative expression, 0.10 μM, 4 h, vs DMSO
  fold induction at 0.1 µM: 2.77
read-out: IL-6 gene relative expression, 0.01 μM, 4 h, vs DMSO
  fold induction at 0.01 µM: 1.17
read-out: IL-6 gene relative expression, 0.03 μM, 4 h, vs DMSO
  fold induction at 0.03 µM: 0.86
read-out: IL-6 gene relative expression, 0.10 μM, 4 h, vs DMSO
  fold induction at 0.1 µM: 6.72
read-out: IL-8 gene relative expression, 0.01 μM, 4 h, vs DMSO
  fold induction at 0.01 µM: 0.71
read-out: IL-8 gene relative expression, 0.03 μM, 4 h, vs DMSO
  fold induction at 0.03 µM: 0.54
read-out: IL-8 gene relative expression, 0.10 μM, 4 h, vs DMSO
  fold induction at 0.1 µM: 0.6
read-out: IL-10 gene relative expression, 0.01 μM, 4 h, vs DMSO
  fold induction at 0.01 µM: 1.12
read-out: IL-10 gene relative expression, 0.03 μM, 4 h, vs DMSO
  fold induction at 0.03 µM: 0.41
read-out: IL-10 gene relative expression, 0.10 μM, 4 h, vs DMSO
  fold induction at 0.1 µM: 0.09
read-out: IL-12p40 gene relative expression, 0.01 μM, 4 h, vs DMSO
  fold induction at 0.01 µM: 0.89
read-out: IL-12p40 gene relative expression, 0.03 μM, 4 h, vs DMSO
  fold induction at 0.03 µM: 0.32
read-out: IL-12p40 gene relative expression, 0.10 μM, 4 h, vs DMSO
  fold induction at 0.1 µM: 0.22
read-out: IL-12p70 gene relative expression, 0.01 μM, 4 h, vs DMSO
  fold induction at 0.01 µM: 1.03
read-out: IL-12p70 gene relative expression, 0.03 μM, 4 h, vs DMSO
  fold induction at 0.03 µM: 0.87
read-out: IL-12p70 gene relative expression, 0.10 μM, 4 h, vs DMSO
  fold induction at 0.1 µM: 0.76
read-out: IL-13 gene relative expression, 0.01 μM, 4 h, vs DMSO
  fold induction at 0.01 µM: 3.1
read-out: IL-13 gene relative expression, 0.03 μM, 4 h, vs DMSO
  fold induction at 0.03 µM: 52.6
read-out: IL-13 gene relative expression, 0.10 μM, 4 h, vs DMSO
  fold induction at 0.1 µM: 101
read-out: IL-18 gene relative expression, 0.01 μM, 4 h, vs DMSO
  fold induction at 0.01 µM: 0.26
read-out: IL-18 gene relative expression, 0.03 μM, 4 h, vs DMSO
  fold induction at 0.03 µM: 0.06
read-out: IL-18 gene relative expression, 0.10 μM, 4 h, vs DMSO
  fold induction at 0.1 µM: 0.06
read-out: ISG15 gene relative expression, 0.01 μM, 4 h, vs DMSO
  fold induction at 0.01 µM: 1.01
read-out: ISG15 gene relative expression, 0.03 μM, 4 h, vs DMSO
  fold induction at 0.03 µM: 1.33
read-out: ISG15 gene relative expression, 0.10 μM, 4 h, vs DMSO
  fold induction at 0.1 µM: 1.54
read-out: MIP1a (CCL3) gene relative expression, 0.01 μM, 4 h, vs DMSO
  fold induction at 0.01 µM: 1.65
read-out: MIP1a (CCL3) gene relative expression, 0.03 μM, 4 h, vs DMSO
  fold induction at 0.03 µM: 2.82
read-out: MIP1a (CCL3) gene relative expression, 0.10 μM, 4 h, vs DMSO
  fold induction at 0.1 µM: 5.73
read-out: MX1 gene relative expression, 0.01 μM, 4 h, vs DMSO
  fold induction at 0.01 µM: 0.84
read-out: MX1 gene relative expression, 0.03 μM, 4 h, vs DMSO
  fold induction at 0.03 µM: 1.01
read-out: MX1 gene relative expression, 0.10 μM, 4 h, vs DMSO
  fold induction at 0.1 µM: 0.99
read-out: OAS1 gene relative expression, 0.01 μM, 4 h, vs DMSO
  fold induction at 0.01 µM: 0.74
read-out: OAS1 gene relative expression, 0.03 μM, 4 h, vs DMSO
  fold induction at 0.03 µM: 0.78
read-out: OAS1 gene relative expression, 0.10 μM, 4 h, vs DMSO
  fold induction at 0.1 µM: 0.69
read-out: TNF-α gene relative expression, 0.01 μM, 4 h, vs DMSO
  fold induction at 0.01 µM: 2.39
read-out: TNF-α gene relative expression, 0.03 μM, 4 h, vs DMSO
  fold induction at 0.03 µM: 4.48
read-out: TNF-α gene relative expression, 0.10 μM, 4 h, vs DMSO
  fold induction at 0.1 µM: 6.25
